Article PMC4266648, “Metabolism of Skin-Absorbed Resveratrol into Its Glucuronized Form in Mouse Skin” (PLoS ONE, 2014)
Entries after “also recorded” stand apart in the source; their conditions may differ.

Key:
[1] = test system: HepG2 (human hepatoblastoma cells); assay: RESV metabolism in cell culture (LC-MS), HepG2; conditions: HepG2, 20 or 200 µM RESV, 4 h
Description: (§1) Cells were maintained in Dulbecco’s Modified Eagle Medium (DMEM) with 1% penicillin/streptomycin and 2 mM L-glutamine with some modifications as follows; DMEM (1.0 g/L glucose) with 10% fetal calf serum (FCS) for HepG2; DMEM (4.5 g/L glucose) with 10% FCS for HaCaT; DMEM (4.5 g/L glucose) with 20% FCS for C2C12. C2C12 cells were differentiated into myotubes by switching medium into DMEM containing 2% horse serum. Cells were plated on a 10 cm dish and allowed to adhere for 18 h. […] After 4 h incubation, cells were washed with PBS twice, followed by addition of 2 mL 50% ice-cold methanol. Collected cells were transferred into tubes on ice and further processed as described in metabolome sample preparation section.
(§2) After addition of internal standards (10 nmol HEPES and PIPES) to metabolome samples and brief vortexing, samples were transferred to Amicon Ultra 10 kDa cut-off filters (Millipore, Billerica, MA, USA) to remove proteins. […]
(§3) LC-MS data were obtained using a Paradigm MS4 HPLC system (Michrom Bioresources, Auburn, CA, USA) coupled to an LTQ Orbitrap mass spectrometer (Thermo Fisher Scientific, Waltham, MA, USA), as described previously [38]. […] Peak areas of metabolites of interest were measured using the MZmine 2.10 software [39] and normalized using the peak areas of HEPES and PIPES, as described in S2 Table.

[2] = test system: HaCaT (human keratinocytes); assay: RESV metabolism in cell culture (LC-MS), HaCaT; conditions: 20 or 200 µM RESV, 4 h
Description: as §1, §2, §3

C2C12 (mouse myoblasts) = assay: RESV metabolism in cell culture (LC-MS), C2C12; conditions: C2C12, 20 or 200 µM RESV, 4 h
Description: as §1, §2, §3

[3] = Distribution of RESV metabolites in mouse tissues after oral and dermal administration (LC-MS); format: in vivo, mouse; conditions: for Tissue distribution of metabolite: hairless mice, 4 h after 1 mg RESV, both oral and skin administration
Description: Mice were separated from each other and could not lick RESV from their dorsal skin.
Mice were anesthetized with pentobarbital and blood was collected from the right ventricle. For metabolite extraction 0.2 mL of blood were mixed with 1.8 mL 55% methanol, pre-chilled to −40°C and kept until further processing as described in the metabolome sample preparation section. In addition to blood, metabolome samples were prepared from liver, dorsal skin, leg skin, and hind limb muscle.
Around 100 mg of each mouse tissue was dissected and weighed. Tissues were minced and homogenized for 3 min in 500 µL 50% methanol on ice using a BioMasher II (Nippi, Tokyo, Japan). Next, 1 mL 50% methanol and internal standards (10 nmol 4-(2-hydroxyethyl)-1-piperazineethanesulfonic acid (HEPES) and piperazine-N,N’-bis(2-ethanesulfonic acid) (PIPES)) were added to the samples. HEPES and PIPES were used as internal standards to correct for the variation of sample preparation and different detection efficiency. After brief vortexing, samples were centrifuged at 500 g for 10 min at 4°C. Supernatant was recovered for further processing as described in the metabolome sample preparation section (without the repeated addition of internal standards and vortexing).
Metabolome sample preparation was previously described.
Peaks were assigned to metabolites based upon their retention times and m/z values. Compounds were confirmed with standards (STD) or with analysis of MS/MS spectra (MS/MS), if no standard was available. In cases where no standard compound or MS/MS spectrum was available, compounds were identified by generating chemical formulae using m/z values in MZmine 2.10 module and given MS status. Data were analyzed using the scatter plot function built into MZmine 2.10 software, as well as by exporting the data to a spreadsheet.

TPA-induced ear edema = assay: TPA-induced ear edema; format: in vivo, mouse; conditions: for Ear thickness: 24 h after 1 µg TPA, before TPA 0.22 mm, TPA control 0.30 mm, female C57BL/6 mice
Description: The ear edema model was employed as previously described. Briefly, 1 µg 12-O-Tetradecanoylphorbol-13-acetate (TPA) was applied to the right ear of female C57BL/6 mice. Edema was evaluated by measuring ear thickness and ear weight. […] Ear thickness was measured with a micrometer before and 24 h after TPA treatment. After sacrificing mice with CO2, ear punch biopsies (6 mm diameter) were weighed.

[4] = RESV-treated mouse samples, LC-MS negative ionization mode

## O=C(O)[C@H]1O[C@@H](Oc2cc(O)cc(/C=C\c3ccc(O)cc3)c2)[C@H](O)[C@@H](O)[C@@H]1O (relative stereo) [cis-RESV-3-O-GLUC, cis-Resveratrol-3-O-glucuronide]
[1]
  Detection of metabolite (normalized peak area) in cells treated with RESV: detected
[2]
  Detection of metabolite (normalized peak area) in cells treated with RESV: detected
C2C12 (mouse myoblasts)
  Detection of metabolite (normalized peak area) in cells treated with RESV: detected

## O=C(O)[C@H]1O[C@@H](Oc2ccc(/C=C\c3cc(O)cc(O)c3)cc2)[C@H](O)[C@@H](O)[C@@H]1O (relative stereo) [cis-RESV-4-O-glucuronide, cis-resveratrol-4-O-glucuronide]
[3]; mouse, in vivo
  Detection of metabolite in mouse and cell culture samples: barely detected

## O=C(O)[C@H]1O[C@@H](Oc2cc(O)cc(/C=C/c3ccc(O)cc3)c2)[C@H](O)[C@@H](O)[C@@H]1O (relative stereo) [trans-RESV-3-O-GLUC, trans-resveratrol-3-O-glucuronide]
[1]
  Detection of metabolite (normalized peak area) in cells treated with RESV: detected
[2]
  Detection of metabolite (normalized peak area) in cells treated with RESV: detected
C2C12 (mouse myoblasts)
  Detection of metabolite (normalized peak area) in cells treated with RESV: detected

## O=C(O)[C@H]1O[C@@H](Oc2ccc(/C=C/c3cc(O)cc(O)c3)cc2)[C@H](O)[C@@H](O)[C@@H]1O (relative stereo) [trans-RESV-4-O-glucuronide, trans-resveratrol-4-O-glucuronide]
[3]; mouse, in vivo
  Detection of metabolite in mouse and cell culture samples: barely detected

## Oc1ccc(/C=C/c2cc(O)cc(O)c2)cc1 [RESV, trans-resveratrol]
TPA-induced ear edema; 6 mm ear punch 24 h after TPA, 1 mg RESV oral, TPA-treated mice 9.4 mg
  Ear weight: 8.1 mg
TPA-induced ear edema; 1 mg RESV applied topically to ear 30 min after TPA
  Ear thickness: 0.21 mm
TPA-induced ear edema; 1 mg RESV orally 30 min after TPA
  Ear thickness: 0.26 mm

## Dihydroresveratrol- glucuronide [DH-RESV-GLUC]
[3]
  Tissue distribution of metabolite: detected in blood and liver as well as at lower levels in skin and muscle

## Dihydroresveratrol- sulfoglucuronide [DH-RESV-SULF-GLUC]
[3]; [4]
  Reports and comments: samples in which the metabolite was detected: Detected in mouse liver samples

## Dihydroresveratrol-sulfate [DH-RESV-SULF]
[3]
  Tissue distribution of metabolite: detected mainly in liver and blood; also recorded: barely detectable in dorsal and leg skin, and muscle

## Resveratrol-diglucuronide [RESV-DIGLUC]
[3]; mouse, in vivo
  Reports and comments: samples in which the metabolite was detected: Detected in mouse skin samples

## Resveratrol-disulfate [RESV-DISULF]
[3]; [4]
  Reports and comments: samples in which the metabolite was detected: Detected in mouse blood and liver samples

## Resveratrol-sulfoglucuronide [RESV-SULF-GLUC]
[3]; mouse, in vivo
  Reports and comments: samples in which the metabolite was detected: Azorin-Ortuno et al 2011 [4] (MS/MS data) Detected in blood mouse blood samples
